Like-named read-outs stand apart in the source and are kept apart here.
Experiments:
P-gp [1] = test: Intracellular Rho123 fluorescence intensity in hCMEC/D3 cells (P-gp efflux function); format: cell-based, human; details: Rho123 2 μM for 0.5 h
Method: The cells were then washed with phosphate buffer saline (PBS) solution five times (2 mL each time) and treated with 2 mL of 0.1% Triton X-100 for 15 min. The cell solution was transferred to a black 96-well plate (Corning, NY, USA) with six wells in each group and 200 μL in each well after brief centrifugation. The fluorescence intensity of each well was detected using a microplate reader (BioTek, Thorold, ON, Canada). The excitation/emission wavelength of Rho123 was 485/535 nm. After 24, 48, or 72 h of SMG treatment, the hCMEC/D3 cells were treated with 2 mL of medium containing Rho123 (2 μM) for 0.5 h. Subsequent operations were performed in the same way as for Caco-2 cells.

P-gp [2] = test: Ratio of Rho123 concentration in rat brain and blood (P-gp efflux function in rat brain); format: in vivo; details: Rho123 0.5 mg/kg tail vein, 15 min post-injection
Method: After 45 min, the tail veins of all rats were injected with Rho123 (0.5 mg/kg, Solarbio, Beijing, China). At 15 min post-injection, all rats were anesthetized with chloral hydrate (350 mg/kg), and the blood was collected from the heart. After being subjected to transcardiac perfusion using the stroke-physiological saline solution from the heart, the brain samples of all rats were collected. In summary, 0.1 g of brain samples were homogenized with 0.4 mL of normal saline to obtain brain homogenate. Blank plasma and brain samples were collected from rats without a Rho123 injection and used to prepare Rho123 standard curve samples. The concentration of Rho123 in plasma and brain homogenate from all rats was detected by fluorescence intensity (λ excitation/λ emission = 485/535) using a microplate reader (BioTek, Thorold, ON, Canada). The Kp brain of Rho123 was used to evaluate P-gp efflux function.

[3] = cited from earlier work
[4] = test system: Wnt/β-catenin signaling pathway; test: Western-Blot of Wnt/β-catenin pathway proteins and P-gp in hCMEC/D3 cells treated with IWP-O1; format: cell-based, human
Method: The hCMEC/D3 cells were purchased from iCell Bioscience Inc. (Shanghai, China) and cultured in RPMI 1640 medium containing 1% penicillin–streptomycin liquid (Solarbio, Beijing, China) and 10% fetal bovine serum (Tianhang, Zhejiang, China) in the same environment as that of Caco-2 cells. The hCMEC/D3 cells were seeded at a density of 6 × 10^4 cells/cm^2 and cultured for 2 days under normal gravity. The flasks were then filled with culture medium and exposed to SMG using random speed 3D clinostat for 24, 48, and 72 h. The hCMEC/D3 cells in the CON group were cultured under normal gravity in the same CO2 incubator.
(§1) FzM1.8 and IWP-O1 (Wnt/β-catenin signaling pathway-specific agonist and inhibitor, respectively) were dissolved in dimethyl sulfoxide (DMSO) and diluted with culture medium to obtain the desired concentrations. The final concentration of DMSO was 0.1%. FzM1.8 (2 μM) was added to the Caco-2 cells in the CON + FzM1.8 and SMG + FzM1.8 groups. IWP-O1 (1 nM) was added to the hCMEC/D3 cells in the CON + IWPO-1 and SMG + IWPO-1 groups. The cells in the SMG, SMG + FzM1.8, or SMG + IWPO-1 group were then exposed to SMG for 48 h.
(§2) Total proteins in the rat ileum mucosa and brain and Caco-2 and hCMEC/D3 cells were extracted using radio immunoprecipitation assay buffer containing protease inhibitors and protein phosphatase inhibitors. The supernatant was collected after centrifugation (12,000× g, 4 °C, and 10 min). The protein concentration was tested using Coomassie brilliant blue staining. The supernatant was mixed with 4× protein loading buffer containing dithiothreitol (Solarbio, Beijing, China) and […] in a boiling water bath for 10 min. […] The gray value of each band was collected using Image Lab^TM Software (version 3.0, Bio-Rad, Hercules, CA, USA), and the relative expression levels of proteins were expressed as the ratio of the gray value of the target band to the total proteins in the same lane.

[5] = test system: Wnt/β-catenin signaling pathway; test: Western-Blot of Wnt/β-catenin pathway proteins and P-gp in Caco-2 cells treated with FzM1.8; format: cell-based, human
Method: Caco-2 cells were purchased from the Chinese Academy of Sciences (Shanghai, China) and maintained in MEM/EBSS medium (Hyclone, UT, USA) supplemented with 10% fetal bovine serum (Sofar, Beijing, China), 1% penicillin–streptomycin liquid (Solarbio, Beijing, China), and 1% nonessential amino acids (Gibco, New York, NY, USA) in a humidified 5% CO2 atmosphere at 37 °C. The Caco-2 cells were seeded in a T-12.5 flask (2 × 10^4 cells/cm^2) and cultured for 21 days under normal gravity. The T-12.5 flask was filled with culture medium while preventing bubble formation and then exposed to SMG using random speed 3D clinostat (National Space Science Center, Beijing, China) for 12, 24, 48, and 72 h. The Caco-2 cells in the CON group were cultured under normal gravity in the same CO2 incubator.
as §1, §2

[6] = Rat brain distribution of acetaminophen (Kp brain); format: in vivo; details: AP 1.2 g/kg oral, post-oral administration
Method: After 7 or 21 days of tail suspension, all rats were orally administered AP (1.2 g/kg). […] Rat brains were rapidly removed after perfusion with prechilled saline from rat hearts. Then, 0.1 mL of plasma from each rat was used to precipitate proteins with 300 μL of methanol. Approximately 0.1 g of the brain tissue of each rat was homogenized and ultrasonicated in 1 mL of methanol. The supernatant was removed and dried via vacuum centrifugation and reconstituted with methanol for HPLC. The brain distribution of AP was evaluated as the ratio of AP content in brain tissue (μg/g) to that in plasma (μg/mL).
(§3) HPLC was performed on a Shimadzu LC-20AT HPLC system equipped with a UV detector (Shimadzu, Kyoto, Japan). Sample separation was conducted in a C18 column (5 μm, 4.6 × 150 mm). The mobile phases were methanol (A) and water (B) (1:9, v:v), and the flow rate was 1 mL/min. The volume of each sample injected into the HPLC system was 10 μL. The column temperature was maintained at 25 °C, and the detection wavelength was 275 nm. Ferulic acid (final concentration of 100 μg/mL) was used as an IS.

[7] = set-up: method as in earlier work; details: 21 and 28 days of SMG treatment in rats; cited from earlier work
rat ileum = test: Rat single-pass intestinal perfusion (SPIP) of acetaminophen; format: in vivo; details: for Ka / Peff / Concentration: SPIP of ileum; for Concentration: perfusate 2.5 mg/mL AP
Method: At 1 h post-oral administration, all rats were anesthetized with urethane (1.75 g/kg) and placed in a supine position. Approximately 10 cm of ileum was separated from the intestinal segments. Tubes were carefully inserted at both ends of this segment and ligated with a sterile surgical line. The segment was rinsed with 37 °C Krebs–Ringer’s (KR) solution, balanced with KR solution (containing 2.5 mg/mL AP) at a flow rate of 0.2 mL/min for 15 min, and continuously perfused with KR solution (containing 2.5 mg/mL AP). The flow rate was set as 0.2 mL/min. The outflow perfusate was collected in a pre-weighed tube, which was changed quickly every 15 min and weighed. Six tubes of this fluid were collected for each rat. The perfusion solution and outflow perfusate were diluted in methanol–water (1:9, v:v) and analyzed using HPLC.
as §3

[8] = 7 days CON + Ver (30 mg/kg oral) rats
[9] = 21 days CON + Ver (30 mg/kg oral) rats

## COC(=O)c1ccccc1-c1c2ccc(=N)cc-2oc2cc(N)ccc12 [Rho123, rhodamine 123]
P-gp [1]; 48 h SMG vs CON
  Increase in fluorescence intensity of intracellular Rho123: 13.4%
P-gp [1]; 72 h SMG vs CON
  Increase in fluorescence intensity of intracellular Rho123: 16.7%
P-gp [2]; 7 days SMG vs CON
  Increase of ratio of Rho123 concentration in rat brain to that in the blood: 40.5%
P-gp [2]; 21 days SMG vs CON
  Increase of ratio of Rho123 concentration in rat brain to that in the blood: 173.8%

## CC(C)Cc1ccc(C(C)C(=O)O)cc1 (stereo not drawn) [ibuprofen]
[3]; in vivo, po
  Absorption in humans under SMG: promoted

## CC(CN1c2ccccc2Sc2ccccc21)N(C)C (stereo not drawn) [promethazine]
[3]; oral P-gp substrate drugs, humans under SMG
  Absorption in humans under SMG: promoted

## O=C(Cn1nnc(-c2ccncc2)c1-c1ccccc1)Nc1ccc(-c2ccccc2)cn1 [IWP-O1]
[4]; 1 nM before 48 h SMG, vs SMG group
  P-gp expression under SMG (Western-Blot): down-regulate
[4]; 1 nM, 48 h, vs CON group
  P-gp expression (Western-Blot): decreased
  Wnt/β-catenin signaling pathway (Western-Blot): inhibited

## O=C(Nc1cc(O)cc(C(=O)O)c1)Nc1ccc2ccccc2c1 [FzM1.8]
[5]; 2 μM before 48 h SMG, vs SMG group
  P-gp expression under SMG (Western-Blot): up-regulate
[5]; 2 μM, 48 h, vs CON group
  P-gp expression (Western-Blot): increased
  Wnt/β-catenin signaling pathway (Western-Blot): activated

## CC(=O)Nc1ccc(O)cc1 [AP, acetaminophen]
[6]; 7 days SMG vs CON
  Increase of brain-to-plasma concentration ratio (Kp brain): approximately 22.0%
[6]; 21 days SMG vs CON
  Increase of brain-to-plasma concentration ratio (Kp brain): 40.7%
[7]
  Absorption under SMG: promoted
Rat ileum; [8]
  Ka: 8.93 ± 0.37 * 10^−2 min^−1
  Peff: 10.77 ± 0.61 * 10^−3 cm/min
  Concentration: 1516 ± 52 µg/mL
Rat ileum; 7 days CON rats
  Ka: 7.75 ± 0.11 10^−2 min^−1
  Peff: 8.86 ± 0.16 10^−3 cm/min
  Concentration: 1684 ± 15 µg/mL
Rat ileum; 7 days SMG rats
  Ka: 8.55 ± 0.21 ** 10^−2 min^−1
  Peff: 10.11 ± 0.33 ** 10^−3 cm/min
  Concentration: 1571 ± 29 µg/mL
Rat ileum; 7 days SMG vs CON
  Increase of Ka in rat ileum: 10.3%
  Increase of Peff in rat ileum: 14.1%
Rat ileum; [9]
  Ka: 7.44 ± 0.18 ** 10^−2 min^−1
  Peff: 8.41 ± 0.25 ** 10^−3 cm/min
  Concentration: 1727 ± 25 µg/mL
Rat ileum; 21 days CON rats
  Ka: 5.66 ± 0.19 10^−2 min^−1
  Peff: 6.01 ± 0.23 10^−3 cm/min
  Concentration: 1965 ± 33 µg/mL
Rat ileum; 21 days SMG rats
  Ka: 8.76 ± 0.47 ** 10^−2 min^−1
  Peff: 10.47 ± 0.76 ** 10^−3 cm/min
  Concentration: 1540 ± 66 µg/mL
Rat ileum; 21 days SMG vs CON
  Increase of Ka in rat ileum: 54.8%
  Increase of Peff in rat ileum: 74.2%
[3]; 80 days of SMG treatment in humans
  Absorption under SMG: promoted
[3]; two astronauts, mission day 2 compared with before the flight
  Absorption in astronauts: increased
